{"source": "ChEMBL document CHEMBL6109139", "about": "“Rational Design of the First Dual Agonist at Trace Amine-Associated Receptor 1 and 5-HT2C Receptors Based on Binding Pocket Similarity for the Treatment of Schizophrenia and Alzheimer's Disease-Related Psychosis” (J Med Chem, 2025)", "key": {"[1]": {"biological_target": "5-hydroxytryptamine receptor 1B (Homo sapiens) (UniProt P28222)", "assay": "Binding affinity to 5-HT1B (unknown origin) at 10 uM by radioligand binding assay relative to control"}, "Mus musculus [2]": {"test_system": "Mus musculus", "assay": "Antipsychotic activity against MK-801 induced hyperlocomotion in male C57BL/6J mouse model assessed as reduction in hyperlocomotive state at 5 mg/kg, IG pretreated with compound followed by MK-801 addition and measured after 30 mins by open field test", "type": "functional, organism-based"}, "[3]": {"assay": "Toxicity in female Sprague-Dawley rat assessed as corneal epithelial degeneration at 2.5 to 7.5 mg/kg, po administered once daily for 4 weeks and measured after 4 weeks", "type": "organism-based", "settings": "in vivo, 1344 h, dose 2.5-7.5 mg/kg, time 8 weeks"}, "[4]": {"assay": "Toxicity in female Sprague-Dawley rat assessed as irritability at 7.5 mg/kg, po administered once daily for 4 weeks and measured after 4 weeks", "type": "organism-based", "settings": "in vivo, 1344 h, time 8 weeks"}, "[5]": {"biological_target": "Delta-type opioid receptor (Homo sapiens) (UniProt P41143)", "sequence (P41143 whole entry)": "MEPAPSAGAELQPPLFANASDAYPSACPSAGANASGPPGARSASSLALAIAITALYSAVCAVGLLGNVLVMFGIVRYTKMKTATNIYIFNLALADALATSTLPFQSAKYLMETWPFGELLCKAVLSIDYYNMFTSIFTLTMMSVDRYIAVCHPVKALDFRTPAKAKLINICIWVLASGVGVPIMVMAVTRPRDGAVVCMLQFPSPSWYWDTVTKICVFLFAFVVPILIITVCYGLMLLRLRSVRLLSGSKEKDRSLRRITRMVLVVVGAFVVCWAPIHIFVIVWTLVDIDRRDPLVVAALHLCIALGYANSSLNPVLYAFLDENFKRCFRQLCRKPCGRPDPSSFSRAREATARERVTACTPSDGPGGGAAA", "assay": "Binding affinity to op-delta receptor (unknown origin) at 10 uM by radioligand binding assay relative to control"}, "[6]": {"biological_target": "Androgen receptor (Homo sapiens) (UniProt P10275)", "sequence (P10275 whole entry)": "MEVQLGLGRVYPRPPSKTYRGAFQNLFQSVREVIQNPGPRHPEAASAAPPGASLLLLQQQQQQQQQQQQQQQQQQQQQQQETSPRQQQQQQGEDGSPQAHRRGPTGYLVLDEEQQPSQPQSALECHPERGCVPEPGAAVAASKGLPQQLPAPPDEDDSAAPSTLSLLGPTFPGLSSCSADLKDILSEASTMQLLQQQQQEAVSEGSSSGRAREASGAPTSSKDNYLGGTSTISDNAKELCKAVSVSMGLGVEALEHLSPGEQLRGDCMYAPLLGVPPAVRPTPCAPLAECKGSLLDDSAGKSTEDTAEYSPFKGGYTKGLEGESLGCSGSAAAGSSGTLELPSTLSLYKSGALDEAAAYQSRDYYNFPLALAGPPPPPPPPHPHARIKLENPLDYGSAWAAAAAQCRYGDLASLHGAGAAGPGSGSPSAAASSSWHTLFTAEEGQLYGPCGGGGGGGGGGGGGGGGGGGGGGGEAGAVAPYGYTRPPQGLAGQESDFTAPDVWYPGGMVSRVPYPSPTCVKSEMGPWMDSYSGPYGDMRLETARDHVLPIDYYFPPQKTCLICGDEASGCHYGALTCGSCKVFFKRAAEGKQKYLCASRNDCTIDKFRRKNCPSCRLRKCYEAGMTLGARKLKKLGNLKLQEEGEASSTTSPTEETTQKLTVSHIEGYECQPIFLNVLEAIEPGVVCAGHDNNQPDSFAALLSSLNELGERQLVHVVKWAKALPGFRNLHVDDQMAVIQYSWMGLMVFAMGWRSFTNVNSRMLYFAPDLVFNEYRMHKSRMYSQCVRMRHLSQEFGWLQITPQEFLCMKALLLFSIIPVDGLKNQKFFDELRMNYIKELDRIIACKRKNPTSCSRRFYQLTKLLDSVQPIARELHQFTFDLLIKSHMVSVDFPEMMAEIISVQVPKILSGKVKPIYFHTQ", "assay": "Binding affinity to AR (unknown origin) at 10 uM by radioligand binding assay relative to control"}, "[7]": {"assay": "Toxicity in female Sprague-Dawley rat assessed as change in urinalysis at 2.5 to 7.5 mg/kg, po administered once daily for 4 weeks and measured after 4 weeks", "type": "organism-based", "settings": "in vivo, 1344 h, dose 2.5-7.5 mg/kg, time 8 weeks"}, "[8]": {"assay": "Toxicity in male Sprague-Dawley rat assessed as corneal epithelial degeneration at 7.5 mg/kg, po administered once daily for 4 weeks", "type": "organism-based", "settings": "in vivo, 672 h"}, "Cytochrome P450 2C9": {"biological_target": "Cytochrome P450 2C9 (Homo sapiens, UniProt P11712)", "assay": "Inhibition of CYP2C9 in human liver microsomes in presence of NADPH by LC-MS/MS analysis", "type": "ADME, Microsome"}, "[9]": {"biological_target": "Histamine H2 receptor (Homo sapiens) (UniProt P25021)", "sequence (P25021 whole entry)": "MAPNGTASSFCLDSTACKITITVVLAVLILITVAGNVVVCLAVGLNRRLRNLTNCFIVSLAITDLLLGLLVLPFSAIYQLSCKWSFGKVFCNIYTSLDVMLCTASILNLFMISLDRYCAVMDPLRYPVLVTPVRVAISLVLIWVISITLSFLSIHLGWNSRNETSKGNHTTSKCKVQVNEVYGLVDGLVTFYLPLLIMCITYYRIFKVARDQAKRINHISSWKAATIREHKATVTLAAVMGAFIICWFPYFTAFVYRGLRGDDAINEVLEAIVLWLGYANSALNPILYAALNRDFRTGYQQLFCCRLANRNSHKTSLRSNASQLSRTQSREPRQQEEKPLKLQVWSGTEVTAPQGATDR", "assay": "Binding affinity to H2 receptor (unknown origin) at 10 uM by radioligand binding assay relative to control"}, "[10]": {"assay": "Ratio of drug concentration in male Sprague-Dawley rat brain to plasma at 5 mg/kg, IG measured after 1 hrs by LC-MS/MS analysis", "type": "ADME, organism-based", "settings": "brain and plasma, po, read-out: BPR"}, "Mus musculus [11]": {"test_system": "Mus musculus", "assay": "Antipsychotic activity against methamphetamine-induced hyperlocomotion in male C57BL/6J mouse model assessed as reduction in hyperlocomotive state at 10 mg/kg, IG pretreated with compound followed by methamphetamine addition and measured after 30 mins by open field test", "type": "functional, organism-based"}, "[12]": {"assay": "Toxicity in female Sprague-Dawley rat assessed as irritability at 2.5 mg/kg, po administered once daily for 4 weeks", "type": "organism-based", "settings": "in vivo, 672 h"}, "[13]": {"assay": "Toxicity in female Sprague-Dawley rat assessed as corneal epithelial degeneration at 7.5 mg/kg, po administered once daily for 4 weeks", "type": "organism-based", "settings": "in vivo, 672 h"}, "[14]": {"biological_target": "5-hydroxytryptamine receptor 1A (Homo sapiens) (UniProt P08908)", "sequence (P08908 whole entry)": "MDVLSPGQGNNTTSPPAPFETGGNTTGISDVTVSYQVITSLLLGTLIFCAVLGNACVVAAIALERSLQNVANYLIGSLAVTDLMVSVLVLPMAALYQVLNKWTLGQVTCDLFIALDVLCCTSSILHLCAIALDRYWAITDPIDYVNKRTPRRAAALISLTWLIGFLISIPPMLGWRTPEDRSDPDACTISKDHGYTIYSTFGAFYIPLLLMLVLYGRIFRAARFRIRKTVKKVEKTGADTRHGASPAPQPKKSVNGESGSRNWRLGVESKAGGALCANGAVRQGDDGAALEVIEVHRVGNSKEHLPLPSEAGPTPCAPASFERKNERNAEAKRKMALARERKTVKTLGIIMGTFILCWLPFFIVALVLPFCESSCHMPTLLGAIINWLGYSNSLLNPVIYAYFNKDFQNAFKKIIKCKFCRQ", "assay": "Agonist activity at human 5-HT1A expressed in CHO cells coexpressing Galpha15 by measuring maximum efficacy at 2 uM by FLIPR calcium assay relative to control", "type": "functional, cell-based", "settings": "filed as agonist"}, "KCNQ1": {"biological_target": "KCNQ1 (Homo sapiens, UniProt P51787)", "sequence (P51787 whole entry)": "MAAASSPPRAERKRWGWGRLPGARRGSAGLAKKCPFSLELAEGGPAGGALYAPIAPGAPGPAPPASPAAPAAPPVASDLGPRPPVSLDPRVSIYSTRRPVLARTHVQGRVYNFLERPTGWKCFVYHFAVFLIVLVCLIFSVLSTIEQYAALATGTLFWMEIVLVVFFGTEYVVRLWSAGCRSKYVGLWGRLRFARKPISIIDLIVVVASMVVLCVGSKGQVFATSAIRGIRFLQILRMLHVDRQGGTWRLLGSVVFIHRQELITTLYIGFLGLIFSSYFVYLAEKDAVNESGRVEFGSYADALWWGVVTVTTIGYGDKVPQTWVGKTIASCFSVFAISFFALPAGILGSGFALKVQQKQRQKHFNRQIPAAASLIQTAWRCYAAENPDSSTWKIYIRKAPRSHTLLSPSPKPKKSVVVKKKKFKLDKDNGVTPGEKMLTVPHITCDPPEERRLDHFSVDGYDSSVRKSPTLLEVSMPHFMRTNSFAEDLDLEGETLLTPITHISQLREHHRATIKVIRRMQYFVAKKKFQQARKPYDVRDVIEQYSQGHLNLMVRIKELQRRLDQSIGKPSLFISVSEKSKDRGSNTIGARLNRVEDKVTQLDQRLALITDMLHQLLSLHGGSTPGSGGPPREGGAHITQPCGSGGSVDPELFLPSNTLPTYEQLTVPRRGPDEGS", "assay": "Binding affinity to human KCNQ1 receptor at 10 uM by radioligand binding assay relative to control", "settings": "read-out: Activity"}, "[15]": {"assay": "Toxicity in male Sprague-Dawley rat assessed as irritability at 7.5 mg/kg, po administered once daily for 4 weeks", "type": "organism-based", "settings": "in vivo, 672 h"}, "[16]": {"assay": "Toxicity in female Beagle dog assessed as change in organ ratios at 0.75 to 2.5 mg/kg, IG administered once daily for 4 weeks and measured after 4 weeks", "type": "organism-based, Canis lupus familiaris", "settings": "in vivo, po, 1344 h, dose 0.75-2.5 mg/kg, time 8 weeks"}, "[17]": {"biological_target": "Adenosine receptor A2a (Homo sapiens) (UniProt P29274)", "sequence (P29274 whole entry)": "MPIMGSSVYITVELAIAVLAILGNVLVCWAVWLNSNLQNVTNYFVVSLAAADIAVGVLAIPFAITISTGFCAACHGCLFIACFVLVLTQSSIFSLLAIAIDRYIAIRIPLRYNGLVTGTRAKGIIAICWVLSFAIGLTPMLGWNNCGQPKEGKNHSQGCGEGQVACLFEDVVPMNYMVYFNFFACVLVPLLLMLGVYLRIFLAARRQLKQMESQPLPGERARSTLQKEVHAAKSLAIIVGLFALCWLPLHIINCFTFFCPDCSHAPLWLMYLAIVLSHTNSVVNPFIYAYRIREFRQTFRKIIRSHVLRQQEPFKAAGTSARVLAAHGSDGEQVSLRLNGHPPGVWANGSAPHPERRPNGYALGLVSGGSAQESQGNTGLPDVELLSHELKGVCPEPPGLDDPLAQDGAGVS", "assay": "Binding affinity to ADORA2A (unknown origin) at 10 uM by radioligand binding assay relative to control"}, "[18]": {"biological_target": "T1, 5-hydroxytryptamine receptor 7 (Homo sapiens, UniProt P34969)", "T1 sequence (P34969 whole entry)": "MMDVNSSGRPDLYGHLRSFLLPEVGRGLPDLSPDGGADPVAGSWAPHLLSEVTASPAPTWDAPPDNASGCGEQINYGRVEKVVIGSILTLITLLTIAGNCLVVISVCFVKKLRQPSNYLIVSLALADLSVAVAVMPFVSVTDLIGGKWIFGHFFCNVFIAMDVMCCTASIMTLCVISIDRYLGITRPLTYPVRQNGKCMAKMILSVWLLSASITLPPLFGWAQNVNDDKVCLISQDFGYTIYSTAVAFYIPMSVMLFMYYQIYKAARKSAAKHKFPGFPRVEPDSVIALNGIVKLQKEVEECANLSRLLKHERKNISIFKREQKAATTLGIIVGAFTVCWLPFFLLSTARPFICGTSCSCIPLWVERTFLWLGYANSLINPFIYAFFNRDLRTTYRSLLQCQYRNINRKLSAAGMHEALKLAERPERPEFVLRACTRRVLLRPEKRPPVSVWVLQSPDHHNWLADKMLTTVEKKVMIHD", "assay": "Agonist activity at recombinant human 5-HT7 expressed in HEK293 cells by measuring maximum efficacy at 2 uM by FLIPR calcium assay relative to control", "type": "functional, cell-based", "settings": "filed as agonist"}, "[19]": {"biological_target": "Trace amine-associated receptor 1 (Mus musculus) (UniProt Q923Y8)", "sequence (Q923Y8 whole entry)": "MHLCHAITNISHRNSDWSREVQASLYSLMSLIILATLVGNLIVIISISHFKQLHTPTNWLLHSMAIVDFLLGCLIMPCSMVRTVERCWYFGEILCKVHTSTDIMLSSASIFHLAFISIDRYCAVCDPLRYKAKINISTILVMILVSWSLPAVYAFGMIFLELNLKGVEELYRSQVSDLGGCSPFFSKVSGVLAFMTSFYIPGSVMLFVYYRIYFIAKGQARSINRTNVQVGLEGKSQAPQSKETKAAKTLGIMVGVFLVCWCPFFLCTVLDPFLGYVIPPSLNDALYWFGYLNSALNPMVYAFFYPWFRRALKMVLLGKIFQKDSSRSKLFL", "assay": "Agonist activity at mouse TAAR1 by measuring maximum efficacy relative to control", "type": "functional", "settings": "filed as agonist"}, "[20]": {"biological_target": "3',5'-cyclic-AMP phosphodiesterase 4D (Homo sapiens) (UniProt Q08499)", "sequence (Q08499 whole entry)": "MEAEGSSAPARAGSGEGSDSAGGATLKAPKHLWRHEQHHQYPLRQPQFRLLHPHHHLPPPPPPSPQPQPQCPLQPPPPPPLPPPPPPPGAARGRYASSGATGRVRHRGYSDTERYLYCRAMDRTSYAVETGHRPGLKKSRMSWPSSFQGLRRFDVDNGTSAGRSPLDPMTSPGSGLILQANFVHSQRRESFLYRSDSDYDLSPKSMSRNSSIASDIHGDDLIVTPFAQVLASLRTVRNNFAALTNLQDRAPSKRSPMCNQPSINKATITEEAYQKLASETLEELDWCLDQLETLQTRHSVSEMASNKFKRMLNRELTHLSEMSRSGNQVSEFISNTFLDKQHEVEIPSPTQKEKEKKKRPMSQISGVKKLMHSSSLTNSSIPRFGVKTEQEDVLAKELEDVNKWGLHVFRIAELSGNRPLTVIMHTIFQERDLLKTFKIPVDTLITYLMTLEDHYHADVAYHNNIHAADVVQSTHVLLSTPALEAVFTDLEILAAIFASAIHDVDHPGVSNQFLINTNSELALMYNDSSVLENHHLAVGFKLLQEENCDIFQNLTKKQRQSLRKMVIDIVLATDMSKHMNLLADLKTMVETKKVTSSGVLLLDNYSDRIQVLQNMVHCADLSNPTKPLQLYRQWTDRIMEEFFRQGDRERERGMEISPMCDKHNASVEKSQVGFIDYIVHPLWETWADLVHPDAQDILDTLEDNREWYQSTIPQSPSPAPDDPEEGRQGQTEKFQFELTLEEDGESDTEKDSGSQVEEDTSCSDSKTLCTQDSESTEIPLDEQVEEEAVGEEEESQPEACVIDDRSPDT", "assay": "Binding affinity to PDE4D2 receptor (unknown origin) at 10 uM by radioligand binding assay relative to control"}, "[21]": {"assay": "Toxicity in female Sprague-Dawley rat assessed as change in organ weight at 2.5 to 7.5 mg/kg, po administered once daily for 4 weeks and measured after 4 weeks", "type": "organism-based", "settings": "in vivo, 1344 h, dose 2.5-7.5 mg/kg, time 8 weeks"}, "[22]": {"assay": "Toxicity in male Sprague-Dawley rat assessed as change in organ weight at 2.5 to 7.5 mg/kg, po administered once daily for 4 weeks and measured after 4 weeks", "type": "organism-based", "settings": "in vivo, 1344 h, dose 2.5-7.5 mg/kg, time 8 weeks"}, "[23]": {"biological_target": "T1, 5-hydroxytryptamine receptor 7", "assay": "Agonist activity at recombinant human 5-HT7 expressed in HEK293 cells by FLIPR calcium assay", "type": "functional, cell-based"}, "[24]": {"assay": "Plasma protein binding in rat assessed as unbound fraction by LC-MS/MS analysis", "type": "ADME, cell-free"}, "[25]": {"assay": "Toxicity in Sprague-Dawley rat assessed as normal spontaneous movement at 2.5 to 7.5 mg/kg, po administered once daily for 4 weeks", "type": "organism-based", "settings": "in vivo, 672 h, dose 2.5-7.5 mg/kg"}, "[26]": {"biological_target": "T2, Trace amine-associated receptor 1 (Homo sapiens, UniProt Q96RJ0)", "T2 sequence (Q96RJ0 whole entry)": "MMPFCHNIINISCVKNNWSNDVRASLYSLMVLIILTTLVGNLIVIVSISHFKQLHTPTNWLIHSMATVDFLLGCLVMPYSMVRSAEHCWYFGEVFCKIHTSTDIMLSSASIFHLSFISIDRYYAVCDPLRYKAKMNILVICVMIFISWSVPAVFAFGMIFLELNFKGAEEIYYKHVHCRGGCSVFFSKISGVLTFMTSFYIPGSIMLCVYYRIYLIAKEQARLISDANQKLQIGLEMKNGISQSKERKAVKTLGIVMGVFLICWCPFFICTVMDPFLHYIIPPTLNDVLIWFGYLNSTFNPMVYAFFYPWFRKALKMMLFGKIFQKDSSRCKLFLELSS", "assay": "Agonist activity at human TAAR1 extracted from CHO-K1 cell membrane coexpressing AGTRL1/Gi by cAMP assay", "type": "functional, cell membranes"}, "[27]": {"assay": "Toxicity in male Beagle dog assessed as change in body weight at 0.75 to 2.5 mg/kg, IG administered once daily for 4 weeks and measured after 4 weeks", "type": "organism-based, Canis lupus familiaris", "settings": "in vivo, po, 1344 h, dose 0.75-2.5 mg/kg, time 8 weeks"}, "[28]": {"assay": "Toxicity in female Sprague-Dawley rat assessed as suppression of food consumption at 7.5 mg/kg, po administered once daily for 4 weeks and measured after 4 weeks", "type": "organism-based", "settings": "in vivo, 1344 h, time 8 weeks"}, "[29]": {"assay": "Toxicity in Sprague-Dawley rat assessed as normal spontaneous movement at 2.5 to 7.5 mg/kg, po administered once daily for 4 weeks and measured after 4 weeks", "type": "organism-based", "settings": "in vivo, 1344 h, dose 2.5-7.5 mg/kg, time 8 weeks"}, "[30]": {"biological_target": "Trace amine-associated receptor 1 (Mus musculus, UniProt Q923Y8)", "sequence (Q923Y8 whole entry)": "as the sequence (Q923Y8 whole entry) above", "assay": "Agonist activity at mouse TAAR1", "type": "functional"}, "[31]": {"assay": "Toxicity in female Beagle dog assessed as change in organ weight at 0.75 to 2.5 mg/kg, IG administered once daily for 4 weeks and measured after 4 weeks", "type": "organism-based, Canis lupus familiaris", "settings": "in vivo, po, 1344 h, dose 0.75-2.5 mg/kg, time 8 weeks"}}, "note": "Calls of active or inactive are those of the source. The calls are words filed in the database; no cut-off is given here."}
{"smiles": "c1cc2c(s1)[C@@H]1CNCCN1CC2", "values": [{"measurement": "Activity", "setting": "[1]", "result": 47.9, "unit": "%"}, {"measurement": "Activity", "setting": "Mus musculus [2]", "result": "Active; More Effective Than Aripiprazole"}, {"measurement": "Activity", "setting": "[3]", "result": "Non-toxic"}, {"measurement": "Activity", "setting": "[4]", "result": "Non-toxic"}, {"measurement": "Activity", "setting": "[5]", "result": 15.4, "unit": "%"}, {"measurement": "Activity", "setting": "[6]", "result": -5.37, "unit": "%"}, {"measurement": "Activity", "setting": "[7]", "result": "Non-toxic"}, {"measurement": "Activity", "setting": "[8]", "result": "Toxic"}, {"measurement": "IC50", "setting": "Cytochrome P450 2C9", "result": "> 50", "unit": "µM"}, {"measurement": "Activity", "setting": "[9]", "result": 1.39, "unit": "%"}, {"measurement": "Kp at 1 h", "setting": "[10]", "result": 6.02}, {"measurement": "Activity", "setting": "Mus musculus [11]", "result": "Active"}, {"measurement": "Activity", "setting": "[12]", "result": "Toxic"}, {"measurement": "Activity", "setting": "[13]", "result": "Toxic"}, {"measurement": "Emax", "setting": "[14]", "result": 48.3, "unit": "%"}, {"measurement": "activity at 10 µM", "setting": "KCNQ1", "result": 28.4, "unit": "%"}, {"measurement": "Activity", "setting": "[15]", "result": "Toxic"}, {"measurement": "Activity", "setting": "[16]", "result": "Non-toxic"}, {"measurement": "Activity", "setting": "[17]", "result": -1.11, "unit": "%"}, {"measurement": "Emax", "setting": "[18]", "result": 65.5, "unit": "%"}, {"measurement": "Emax", "setting": "[19]", "result": 100, "unit": "%"}, {"measurement": "Activity", "setting": "[20]", "result": 5.4, "unit": "%"}, {"measurement": "Activity", "setting": "[21]", "result": "Non-toxic"}, {"measurement": "Activity", "setting": "[22]", "result": "Non-toxic"}, {"measurement": "EC50", "setting": "[23]", "result": 10.9, "unit": "µM"}, {"measurement": "fraction unbound", "setting": "[24]", "result": 0.759}, {"measurement": "Activity", "setting": "[25]", "result": "Non-toxic"}, {"measurement": "EC50", "setting": "[26]", "result": 22, "unit": "nM"}, {"measurement": "Activity", "setting": "[27]", "result": "Non-toxic"}, {"measurement": "Activity", "setting": "[28]", "result": "Non-toxic"}, {"measurement": "Activity", "setting": "[29]", "result": "Non-toxic"}, {"measurement": "EC50", "setting": "[30]", "result": 72.3, "unit": "nM"}, {"measurement": "Activity", "setting": "[31]", "result": "Non-toxic"}]}
